Reference: patent publication US20200261383A1, “PHARMACEUTICAL COMPOSITIONS” (KALVISTA PHARMACEUTICALS LIMITED, priority 2017, published 2020)

Key:
diabetic rats = conditions: cited from earlier work
[1] = Ocular pharmacokinetic study in monkey, intravitreal injection on Day 1, 29 and 57; assay type: in vivo, cynomolgus monkeys; conditions: monkeys; IVT 5 μg/eye Day 1, 29, 57; calculated post third dose, sampling interval Day 57-99
[2] = solution for injection; cited from earlier work

In the case of `N=C(N)c1ccc(CNC(=O)c2cnn(Cc3ccccc3)c2)cc1` [ASP-440], the “Retinal blood flow abnormalities” value (diabetic rats) is given as “ameliorated” and the Retinal vascular permeability (diabetic rats) is given as “ameliorated”.
In the case of `CCOc1ccc(C[C@@H](NC(=O)c2ccccc2)C(=O)N[C@@H](Cc2ccccc2)C(=O)NCc2ccc(CN)cc2)cc1.Cl` [Compound 1, N-[(R)-1-[(S)-1-(4-Aminomethyl-benzylcarbamoyl)-2-phenyl-ethylcarbamoyl]-2-(4-ethoxy-phenyl)-ethyl]-benzamide hydrochloride], the “AUC0-last in Ocular Tissue, Aqueous Humor” value [1] is reported as 1,410 ng · h/mL or ng · h/g, the “AUC0-last in Ocular Tissue, Choroid-Tissue” value [1] is reported as 32,200 ng · h/mL or ng · h/g and the “AUC0-last in Ocular Tissue, Retina- Tissue” value [1] is reported as 166,000 ng · h/mL or ng · h/g. For the same molecule, the “AUC0-last in Ocular Tissue, Vitreous Humor” value [1] was 1,110 ng · h/mL or ng · h/g.
In the case of Ecallantide, the “Safety in medical use” value [2] is listed as “risk of anaphylactic reactions”.
